From the supplement of paper PMC10307832

What was measured:
Assay in all cases: relative viability (nuclei count vs DMSO), 5 days (fraction); higher = more cells survive
NCI-H2085 = system: NCI-H2085
Method in brief: (§1)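 Relative viability is defined as nuclei in treated wells over nuclei in vehicle wells. Duplicate plates were run and medians reported. Lung cancer cell lines in 1536-well plates were dosed by pin tool one day after seeding, with one drug or with a fixed anchor-drug dose plus five library-drug doses (not always all listed) in √10 steps, and nuclei were counted after 5 days.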

NCI-H358 = system: NCI-H358
Method in brief: as §1

SK-LU-1 = system: SK-LU-1
Method in brief: as §1

NCI-H460 = system: NCI-H460
Method in brief: as §1

NCI-H1792 = system: NCI-H1792
Method in brief: as §1

A-427 = system: A-427
Method in brief: as §1

NCI-H1915 = system: NCI-H1915
Method in brief: as §1

COR-L 105 = system: COR-L 105
Method in brief: as §1

NCI-H2170 = system: NCI-H2170
Method in brief: as §1

NCI-H1944 = system: NCI-H1944
Method in brief: as §1

EPLC-272H = system: EPLC-272H
Method in brief: as §1

SMILES: CC(=O)O[C@@]12CO[C@@H]1C[C@H](O)[C@@]1(C)C(=O)[C@H](O)C3=C(C)[C@@H](OC(=O)[C@H](O)[C@@H](NC(=O)OC(C)(C)C)c4ccccc4)C[C@@](O)([C@@H](OC(=O)c4ccccc4)[C@H]21)C3(C)C [Docetaxel] + CS(=O)(=O)CCNCc1ccc(-c2ccc3ncnc(Nc4ccc(OCc5cccc(F)c5)c(Cl)c4)c3c2)o1 [Lapatinib] (partner 2 µM)
- relative viability (NCI-H2085; first compound 0.006325 µM): 0.462
- relative viability (NCI-H2085; first compound 0.02 µM): 0.342
- relative viability (NCI-H358; first compound 0.0002 µM): 0.426
- relative viability (NCI-H358; first compound 0.000632 µM): 0.357
- relative viability (NCI-H358; first compound 0.002 µM): 0.332
- relative viability (NCI-H358; first compound 0.02 µM): 0.149
- relative viability (SK-LU-1; first compound 0.0002 µM): 0.581
- relative viability (SK-LU-1; first compound 0.000632 µM): 0.436
- relative viability (SK-LU-1; first compound 0.002 µM): 0.338
- relative viability (SK-LU-1; first compound 0.006325 µM): 0.222
- relative viability (SK-LU-1; first compound 0.02 µM): 0.233
- relative viability (NCI-H460; first compound 0.0002 µM): 0.665
- relative viability (NCI-H460; first compound 0.000632 µM): 0.163
- relative viability (NCI-H460; first compound 0.002 µM): 0.0209
- relative viability (NCI-H460; first compound 0.006325 µM): 0.0147
- relative viability (NCI-H460; first compound 0.02 µM): 0.0097
- relative viability (NCI-H1792; first compound 0.0002 µM): 0.741
- relative viability (NCI-H1792; first compound 0.000632 µM): 0.85
- relative viability (NCI-H1792; first compound 0.002 µM): 0.522
- relative viability (NCI-H1792; first compound 0.02 µM): 0.0831
- relative viability (A-427; first compound 0.0002 µM): 0.947
- relative viability (A-427; first compound 0.000632 µM): 1.02
- relative viability (A-427; first compound 0.002 µM): 0.961
- relative viability (A-427; first compound 0.006325 µM): 0.211
- relative viability (A-427; first compound 0.02 µM): 0.162
- relative viability (NCI-H1915; first compound 0.0002 µM): 0.937
- relative viability (NCI-H1915; first compound 0.000632 µM): 0.665
- relative viability (NCI-H1915; first compound 0.002 µM): 0.351
- relative viability (NCI-H1915; first compound 0.006325 µM): 0.146
- relative viability (NCI-H1915; first compound 0.02 µM): 0.118
- relative viability (COR-L 105; first compound 0.0002 µM): 0.369
- relative viability (COR-L 105; first compound 0.000632 µM): 0.277
- relative viability (COR-L 105; first compound 0.002 µM): 0.313
- relative viability (COR-L 105; first compound 0.006325 µM): 0.283
- relative viability (COR-L 105; first compound 0.02 µM): 0.268
- relative viability (NCI-H2170; first compound 0.0002 µM): 0.279
- relative viability (NCI-H2170; first compound 0.000632 µM): 0.265
- relative viability (NCI-H2170; first compound 0.002 µM): 0.194
- relative viability (NCI-H2170; first compound 0.006325 µM): 0.224
- relative viability (NCI-H2170; first compound 0.02 µM): 0.184
- relative viability (NCI-H1944; first compound 0.0002 µM): 0.545
- relative viability (NCI-H1944; first compound 0.000632 µM): 0.667
- relative viability (NCI-H1944; first compound 0.002 µM): 0.579
- relative viability (NCI-H1944; first compound 0.006325 µM): 0.242
- relative viability (NCI-H1944; first compound 0.02 µM): 0.112
- relative viability (EPLC-272H; first compound 0.0002 µM): 1.04
- relative viability (EPLC-272H; first compound 0.000632 µM): 0.76
- relative viability (EPLC-272H; first compound 0.002 µM): 0.199
- relative viability (EPLC-272H; first compound 0.006325 µM): 0.0933
- relative viability (EPLC-272H; first compound 0.02 µM): 0.114
